Data set [1] deals with human cancer cells. On the set-up: method as in PMID 7757983, PMID 8999970. The conditions noted are these: cited from earlier work.
Data set [2] in a line: Stability in complete cell culture medium (RP-HPLC). The data set is classed as in vitro ADME. The conditions noted are these: bovine, complete cell culture medium (RPMI with 10% FBS); 8.6 μM solution in RPMI with 10% FBS, 3 days, 37 °C; read-out: degradation in cell culture medium. On the procedure: The stability of the epothilone-GE11 conjugate 4 in complete cell culture medium was evaluated under conditions resembling those encountered in the cytotoxicity assays. Thus, an 8.6 μM solution of 4 in RPMI with 10% FBS was incubated for 3 days at 37 °C and subsequently analyzed by RP-HPLC. Only minor degradation of 4 (<10%) was observed under these conditions (data not shown).
Synthesis, Microtubule-Binding Affinity and Antiproliferative Activity of New Epothilone Analogs and of an EGFR-Targeted Epothilone-Peptide
Fabienne Zdenka Gaugaz, Andrea Chicca, Mariano Redondo, Isabel Barasoain, José Fernando Díaz, and Karl-Heinz Altmann*
SI.1. EGFR Expression Quantification
EGFR expression levels were determined by treating cells with 1 µg/ml Cetuximab or human IgG isotype antibody and staining with a secondary Alexa Fluor 647 goat anti-human IgG.[49] The fluorescence was quantified by FACS on a FACSCanto device with a FACSDiva software and later analyzed with FlowJo (Fig. S1). […]
Figure S1: Relative quantification of EGF receptors by FACS. […]
The stability of 4 in cell culture medium was evaluated by analytical RP-HPLC. […] The mixture was centrifuged and 10 µL of the supernatant were analyzed by analytical HPLC: H2O with 0.1% TFA (A) / acetonitrile/H2O 8/2 with 0.05% TFA (B). […]

The subject of data set [3] is HEK293 cells. Briefly: cells. The data set is classed as cell-based, human. The conditions noted are these: 72 h incubation, mean of three experiments ± SD; read-out: IC50 HEK293. Here is the method:
(§1) Experiments were performed in RPMI (SW480 cells) or DMEM (HEK293 and A431 cells) medium (Gibco) supplemented with 2 mM glutamine, 10% fetal bovine serum, 100 IU/mL penicillin, 100 µg/mL streptomycin, and 1 µg/mL amphotericin B (all from Sigma) at 37 °C and 5% CO2. Cells were seeded into 96-well microtiter plates and compounds were added in DMSO in serial dilutions in triplicate. The final DMSO (dimethylsulfoxide) concentration was 0.1%. After 72 h, a WST-1 reagent was added and the absorption was measured at 450 nm with a plate reader after 30 min to 4 h. The percentage of viable cells was calculated based on vehicle-treated cells and was plotted in GraphPadPrism. At least three independent experiments were performed.
(§2) A431 cells were obtained from CLS. The other cell lines were available in the laboratory. WST-1 was purchased from Roche.

The test system of data set [4] is SW480 cells. The data set is described as follows: cells. The data set is classed as cell-based, human. The conditions noted are these: 72 h incubation, mean of three experiments ± SD; read-out: IC50 SW480. On the procedure:
as §1, §2

For data set [5], the system named is A431 cells. Briefly: cells. The conditions noted are these: 72 h incubation, mean of three experiments ± SD; read-out: IC50 A431. The data set is classed as cell-based, human. On the procedure:
as §1, §2

Data set [6] in a line: Glutathione cleavage assay (reductive disulfide cleavage, RP-HPLC). It is filed as physicochemical. As to conditions: 10 mM GSH. Here is the method: The reductive cleavage of conjugate 4 was analyzed under conditions mimicking those found in the endosome and the cytoplasm of cancer cells. Endosome-like conditions were assumed to be reproduced by a 10 mM solution of glutathione (GSH) in acetate and phosphate buffer pH 4.9; cytoplasm-like conditions entailed 10 mM GSH in phosphate buffer pH 7.4.
For cytoplasm-like conditions, 100 µL of a […] solution of conjugate 4 in degassed 100 mM phosphate buffer pH 7.4 were diluted with 400 µL of a degassed phosphate buffer and 500 µL of 20 mM glutathione in 100 mM phosphate buffer pH 7.4. Aliquots of 80 µL were removed at predefined time points, and the reaction was quenched with one volume of 10% metaphosphoric acid, giving a pH of 1 approximately. Fifty microliters of this solution were analyzed by analytical RP-HPLC. The same protocol was used for cleavage under endosome-like conditions, except that the glutathione solution was prepared in a 100 mM acetate buffer at pH 4.8, and the same buffer was also used to dilute the conjugate solution in a 100 mM phosphate buffer at pH 7.4. The final pH of the cleavage solution was 4.9.
Analytical RP-HPLC: H2O with 0.1% TFA (A)/acetonitrile/water 8/2 with 0.05% TFA (B). Linear gradient from 5% B to 80% B over 30 min. The percentage of remaining conjugate in the solutions was plotted against time (Figure 3). Analysis of the cleavage solutions by LC/MS provided information of the fractions of the various components in the redox mixture.
Figure 3 Kinetics of glutathione (GSH)-mediated reduction of epothilone-peptide conjugate 4 (173 µM 4, 10 mM GSH, pH 4.9 (endosome-like conditions), triangles, or pH 7.4 (cytoplasm-like conditions), circles). Conjugate 4 was added to the respective GSH solutions as a solution in phosphate buffer pH 7.4 at room temperature, to reach a total concentration of 173 μM. Samples were quenched at different time points with 10% metaphosphoric acid and analyzed by RP-HPLC. […]

Each structure is given as a SMILES string. Like-named read-outs stand apart in the source and are kept apart here.

The values that follow come from publication PMC6429585, “Synthesis, Microtubule-Binding Affinity, and Antiproliferative Activity of New Epothilone Analogs and of an EGFR-Targeted Epothilone-Peptide Conjugate” (International Journal of Molecular Sciences, 2019).

For the compound `C/C(=C\c1csc(C)n1)[C@@H]1C[C@@H]2O[C@]2(C)CCC[C@H](C)[C@H](O)[C@@H](C)C(=O)C(C)(C)[C@@H](O)CC(=O)O1` [Epo B, Epothilone B], the “IC50 values for most cell lines” value in data set [1] is “sub-nanomolar”.
On to `CC[C@H](C)[C@H](NC(=O)[C@@H](NC(=O)[C@H](CC(N)=O)NC(=O)[C@H](CCC(N)=O)NC(=O)[C@@H]1CCCN1C(=O)[C@@H](NC(=O)[C@H](Cc1ccc(O)cc1)NC(=O)CNC(=O)[C@H](Cc1ccc(O)cc1)NC(=O)[C@H](Cc1c[nH]c2ccccc12)NC(=O)[C@H](Cc1c[nH]cn1)NC(=O)[C@H](Cc1ccc(O)cc1)NC(=O)[C@@H](N)CSSCCn1c(C)nc2cc([C@@H]3C[C@@H]4C[C@H]4CCC[C@H](C)[C@H](O)[C@@H](C)C(=O)C(C)(C)CCC(=O)O3)ccc21)[C@@H](C)O)C(C)C)C(N)=O` [compound 4], for which the metabolised at 72 h, 8.6 μM in data set [2] was < 10%. Moreover, the IC50 – broadly, the point on the concentration scale where inhibition reaches its midpoint – in data set [3] is 31.1 ± 6.21 nM; in data set [4], 181 ± 25.9 nM; in data set [5] it was 74.7 ± 6.65 nM. In addition, the half-life – broadly, the time needed for the level to fall by half in the phase considered – at 173 µM is 66 s in data set [6] (acetate and phosphate buffer pH 4.9, read-out: half-life, endosome-like conditions); ~12 s in data set [6] (phosphate buffer pH 7.4, read-out: estimated half-life, cytoplasm-like conditions). For the same compound, the “residual conjugate 1 min after addition, cytoplasm-like conditions” value in data set [6] (phosphate buffer pH 7.4, 1 min) is on record as “no residual conjugate was detectable”.
